Results reported in patent US8563254B2, “Biomarkers of tumor pharmacodynamic response” (Novartis AG, priority 2009, dated 2013).

Key:
A375 cells = assay: IL-8 ELISA of A375 culture supernatants; format: cell-based, human
Procedure: A malignant melanoma cell line A375 (American Type Culture Collection, Manassas, Va., USA) and gastric cancer cell line, GTL-16 (Prof Silvia Giordano, Institute for Cancer Research and Treatment, Turin, Italy) were cultured in RPMI 1640 supplemented with 10% FBS and 1% penicillin-streptomycin at 37° C. in 5% CO2 (GIBCO reagents, Invitrogen Corporation, Carlsbad, Calif., USA). Cell numbers were determined by ViCell™ XR Cell Viability Analyzer 2.03 (Beckman Coulter, Inc., Fullerton, Calif., USA). Cells were seeded in poly-D-lysine coated plates (BIOCOAT Cell Environments, Becton Dickinson Biosciences, San Jose, Calif., USA).
Human IL-8 levels in cell culture supernatants from GTL-16 and A375 cells were measured by a sandwich enzyme-linked immunosorbent assay (R&D Systems, Inc., Minneapolis, Minn., USA). Cell culture supernatants were collected from DMSO and NVP-AUY922 treated cells 16, 24, 48 and 72 hr post-treatment and stored at −20° C.
To better characterize the relationship between Hsp90 inhibitor treatment and effects on IL-8 production, GTL-16 and A375 cells were washed and treated for 24 hr with fresh medium containing various concentrations of NVP-AUY922. For this length of treatment time, maximal inhibition of IL-8 accumulation appears to be reached at 0.3 μM as measured by enzyme-linked immunosorbent assay; this equates to 80% and 60% reductions in GTL-16 and A375 cultures, respectively (FIGS. 2A, B).

GTL-16 cells = assay: Western blot of total protein lysates, GTL-16; format: cell-based, human; details: GTL-16, 0.3 μM, 16 hr and 24 hr
Procedure: Total protein lysates were prepared from the GTL-16 and A375 cells with RIPA lysis buffer (Upstate, Millipore Corporation, Charlottesville, Va., USA). Cells were washed with PBS and 500 ul of ice-cold RIPA buffer, containing protease inhibitor cocktail tablet (Roche Diagnostic GmbH, Mannheim, Germany) and phosphatase inhibitors (Sigma-Aldrich, Inc., St. Louis, Mo., USA), was added to each plate on ice. After 15 min the cells were scrapped from the plate surface and spun at 16000 RPM for 10 min at 4° C. The supernatant was collected and frozen at −80° C. Nuclear protein fractions were prepared by the NE-PER nuclear and cytoplasmic extraction kit (Pierce Biotechnology, Rockford, Ill., USA). Proteins were quantified by bicinchoninic acid assay (Pierce Biotechnology, Rockford, Ill., USA) for Western blotting. Primary antibodies specific for NFκB p65, cREL, p-ERK1/2, p-c-jun, ERK1 and Jun were purchased from Santa Cruz Biotechnology (Santa Cruz Biotechnology, Inc., Santa Cruz, Calif., USA) with the exception of Hsp70 and TBP (nuclear loading control), which were obtained from StressGen (StressGen, Assay Designs, Inc., Aim Arbor, Mich., USA) and Abcam (Abcam Inc., Cambridge, Mass., USA), respectively. 4-12% Bis-Tris SDS-PAGE, denaturing, non-reducing gels were loaded with 30 μg of total protein, a SeeBlue2Plus pre-stained protein standard and MES SDS running buffer were utilized for the electrophoretic separation in a XCell SureLock™ Mini-Cell (Invitrogen Corporation, Inc., Carlsbad, Calif., USA). An iBlot™ gel transfer PVDF stack with iBlot™ gel transfer system (Invitrogen) was used. An Odyssey Infrared Imaging System was used to detect the immunocomplex (Li-COR Biotechnologies, Inc., Lincoln, Nebr., USA). Li-COR blocking buffer was used to limit cross-reactivity. Membranes were incubated at 4° C. overnight in the primary antibody diluted in blocking buffer, followed by 1 hr room temperature incubation with a secondary IgG antibody (Li-COR IR dye, Li-COR).

A375 tumor-bearing mice = assay: Serum IL-8 / mouse KC in A375 mouse xenograft model; format: in vivo; parameters: drop of serum IL-8 levels / time at which serum IL-8 recovered to pre-treatment level: dose or concentration left out as unconfirmed
Procedure: The in vivo study was carried out in strict accordance with Swiss law for animal protection and was approved by the Swiss Cantonal Veterinary Office of Basel-Stadt. GTL-16 (4×10^6) and A375 cells (5×10^6) were inoculated subcutaneously in the right flank in 200 μl Hanks' balanced salt solution (HBSS) or PBS, respectively. Invasive procedures were performed under Forene anesthesia. All experiments were performed in female Harlan HsdNpa: Athymic Nude-nu mice (Laboratory Animal Services, Novartis Pharma AG, Basel). The animals were kept under optimized hygienic conditions with 12 hr dark, 12 hr light conditions. The animals were fed food and water ad libitum. […] Mice in the control group were injected with the vehicle (D5W). Serum was isolated and tumors dissected over the time course 0-168 hr. Tumors were cut in two halves. One half was paraffin embedded and the other snap frozen, and stored at −80° C.
Human IL-8 levels in cell culture supernatants treated with NVP-AUY922 were initially assessed as part of a multiplexed bead-based cytokine panel (hu 27-plex panel I, Bio-rad Laboratories, Hercules, Calif., USA) with a BioPlex Suspension Array System (Bio-rad). Human IL-8 and mouse KC levels in serum derived from GTL-16 and A375 tumor-bearing mice treated with NVP-AUY922 were measured by single-plex cytokine bead-based assay (Milliplex, Millipore, Billerica, Mass., USA). The BioPlex system uses a liquid suspension array of beads. The beads align in a single file through a flow cell to the detector, where a red classification laser at a wavelength of 635 nm and a green reporter laser at a wavelength of 532 nm are used to identify each bead's spectral address and associated reporter signal, respectively.

In the case of CCNC(=O)c1noc(-c2cc(C(C)C)c(O)cc2O)c1-c1ccc(CN2CCOCC2)cc1 [NVP-AUY922, 5-(2,4-Dihydroxy-5-isopropyl-phenyl)-4-(4-morhpolin-4-ylmethyl-phenyl)-isoxazole-3-carboxylic acid ethylamide], the “time within which IL-8 production dramatically declines” value (A375 cells; A375, 0.3 μM) is reported as ≤ 16 h, the “concentration at which maximal inhibition of IL-8 accumulation is reached” value (A375 cells; A375, 24 hr treatment) is reported as 0.3 µM and the inhibition at 0.3 µM (A375 cells; Homo sapiens, A-375, A375, 0.3 μM, 24 hr, ELISA, read-out: reduction of IL-8 accumulation (maximal inhibition)) is reported as 60%. The Hsp70 induction (GTL-16 cells) was “induction was observed”, the “levels of phospho-ERK1/2 and phospho-c-Jun” value (GTL-16 cells) was “significantly diminished” and the “total ERK and c-Jun levels” value (GTL-16 cells) was “unaffected”. The “total cellular levels of NFκB p65 and c-REL” value (GTL-16 cells) was “essentially unchanged”, the “time at which serum IL-8 recovered to pre-treatment level” value (A375 tumor-bearing mice) was 168 h and the “drop of serum IL-8 levels” value (A375 tumor-bearing mice; 48 hr post-treatment) was “approximately 40%”. For the same compound, the “murine IL-8 levels, measured indirectly as mu KC” value (A375 tumor-bearing mice; serum) was “unchanged”.
